Organism: Rattus norvegicus
Experiment: DrugMatrix - Regimen: Daily Repeat
Format: toxicity, organism-based, Sprague-Dawley
Design: regimen Daily Repeat, gender Male, age 6-8 weeks
Settings: in vivo, po, route oral GAVAGE, vehicle 100 % WATER
[1] = 9 mg/kg, 72 h, tissue Blood, dose level Low, time 3 day
[2] = 9 mg/kg, 72 h, tissue Plasma, dose level Low, time 3 day
[3] = 9 mg/kg, 120 h, tissue Blood, dose level Low, time 5 day
[4] = 9 mg/kg, 120 h, tissue Plasma, dose level Low, time 5 day
[5] = 90 mg/kg, 72 h, tissue Blood, dose level High, time 3 day
[6] = 90 mg/kg, 72 h, tissue Plasma, dose level High, time 3 day
[7] = 90 mg/kg, 120 h, tissue Blood, dose level High, time 5 day
[8] = 90 mg/kg, 120 h, tissue Plasma, dose level High, time 5 day

STANNOUS FLUORIDE
ABSOLUTE BASOPHIL [1]: 0 CELLS/uL
ABSOLUTE EOSINOPHIL [1]: 0 CELLS/uL
ABSOLUTE LYMPHOCYTE [1]: 13273.33 CELLS/uL
ABSOLUTE MONOCYTE [1]: 348.33 CELLS/uL
ABSOLUTE SEGMENTED NEUTROPHIL [1]: 1378.33 CELLS/uL
BASOPHIL [1]: 0%
EOSINOPHIL [1]: 0%
ERYTHROCYTE COUNT [1]: 5.48 x10E6/uL
HEMATOCRIT [1]: 34.9%
HEMOGLOBIN [1]: 13.5 G/DL
LEUKOCYTE COUNT [1]: 15 x10E3/uL
MEAN CORPUSCULAR HEMOGLOBIN [1]: 24.67 pg
MEAN CORPUSCULAR HEMOGLOBIN CONCENTRATION [1]: 38.7 G/DL
NUCLEATED RED BLOOD CELLS [1]: 0 /100WBC
PLATELET COUNT [1]: 1118.33 x10E3/uL
ALANINE AMINOTRANSFERASE [2]: 80.67 u/L
ALKALINE PHOSPHATASE [2]: 343 u/L
ASPARTATE AMINOTRANSFERASE [2]: 104.33 u/L
BLOOD UREA NITROGEN [2]: 17 mg/dL
CARBON DIOXIDE [2]: 21.33 mmol/L
CHOLESTEROL [2]: 77 mg/dL
CREATINE PHOSPHOKINASE [2]: 322.33 u/L
CREATININE [2]: 0.21 mg/dL
GLUCOSE [2]: 188 mg/dL
LACTATE DEHYDROGENASE [2]: 156 u/L
LIPASE [2]: 9.5 u/L
PHOSPHORUS [2]: 11.3 mg/dL
POTASSIUM [2]: 6.63 MEQ/L
SODIUM [2]: 146.2 MEQ/L
TOTAL BILIRUBIN [2]: 0.37 mg/dL
TOTAL PROTEIN [2]: 5.07 G/DL
URIC ACID [2]: 1.73 mg/dL
ABSOLUTE BASOPHIL [3]: 0 CELLS/uL
ABSOLUTE EOSINOPHIL [3]: 174 CELLS/uL
ABSOLUTE LYMPHOCYTE [3]: 11650 CELLS/uL
ABSOLUTE MONOCYTE [3]: 421.33 CELLS/uL
ABSOLUTE SEGMENTED NEUTROPHIL [3]: 1221.33 CELLS/uL
BASOPHIL [3]: 0%
EOSINOPHIL [3]: 1%
ERYTHROCYTE COUNT [3]: 5.66 x10E6/uL
HEMATOCRIT [3]: 35.6%
HEMOGLOBIN [3]: 13.1 G/DL
LEUKOCYTE COUNT [3]: 13.47 x10E3/uL
LYMPHOCYTE [3]: 86.67%
MEAN CORPUSCULAR HEMOGLOBIN [3]: 23.23 pg
MEAN CORPUSCULAR HEMOGLOBIN CONCENTRATION [3]: 36.9 G/DL
MEAN CORPUSCULAR VOLUME [3]: 62.97 fL
MONOCYTE [3]: 3%
NUCLEATED RED BLOOD CELLS [3]: 0 /100WBC
PLATELET COUNT [3]: 1231.67 x10E3/uL
ALANINE AMINOTRANSFERASE [4]: 45 u/L
ALKALINE PHOSPHATASE [4]: 430.67 u/L
ASPARTATE AMINOTRANSFERASE [4]: 96.67 u/L
BLOOD UREA NITROGEN [4]: 22 mg/dL
CARBON DIOXIDE [4]: 24.33 mmol/L
CHLORIDE [4]: 108.67 MEQ/L
CHOLESTEROL [4]: 59 mg/dL
CREATINE PHOSPHOKINASE [4]: 371.67 u/L
CREATININE [4]: 0.2 mg/dL
GLUCOSE [4]: 135.33 mg/dL
LACTATE DEHYDROGENASE [4]: 479 u/L
PHOSPHORUS [4]: 12.03 mg/dL
POTASSIUM [4]: 6.27 MEQ/L
SODIUM [4]: 147.1 MEQ/L
TOTAL BILIRUBIN [4]: 0.17 mg/dL
TOTAL PROTEIN [4]: 6.13 G/DL
ABSOLUTE BASOPHIL [5]: 0 CELLS/uL
ABSOLUTE EOSINOPHIL [5]: 58 CELLS/uL
ABSOLUTE LYMPHOCYTE [5]: 13530 CELLS/uL
ABSOLUTE MONOCYTE [5]: 390.67 CELLS/uL
ABSOLUTE SEGMENTED NEUTROPHIL [5]: 1821.33 CELLS/uL
BASOPHIL [5]: 0%
EOSINOPHIL [5]: 0.33%
ERYTHROCYTE COUNT [5]: 5.56 x10E6/uL
HEMATOCRIT [5]: 34%
LEUKOCYTE COUNT [5]: 15.8 x10E3/uL
LYMPHOCYTE [5]: 85.67%
MEAN CORPUSCULAR HEMOGLOBIN [5]: 23.23 pg
MEAN CORPUSCULAR HEMOGLOBIN CONCENTRATION [5]: 38 G/DL
NEUTROPHIL [5]: 11.67%
NUCLEATED RED BLOOD CELLS [5]: 0 /100WBC
PLATELET COUNT [5]: 1397.33 x10E3/uL
ALANINE AMINOTRANSFERASE [6]: 42 u/L
ALKALINE PHOSPHATASE [6]: 299.67 u/L
ASPARTATE AMINOTRANSFERASE [6]: 76.33 u/L
CARBON DIOXIDE [6]: 25 mmol/L
CHOLESTEROL [6]: 62.33 mg/dL
CREATINE PHOSPHOKINASE [6]: 334 u/L
CREATININE [6]: 0.15 mg/dL
LACTATE DEHYDROGENASE [6]: 108 u/L
PHOSPHORUS [6]: 13.3 mg/dL
POTASSIUM [6]: 6 MEQ/L
TOTAL BILIRUBIN [6]: 0.23 mg/dL
TOTAL PROTEIN [6]: 5.67 G/DL
ABSOLUTE BASOPHIL [7]: 0 CELLS/uL
ABSOLUTE EOSINOPHIL [7]: 49.67 CELLS/uL
ABSOLUTE MONOCYTE [7]: 426 CELLS/uL
ABSOLUTE SEGMENTED NEUTROPHIL [7]: 994 CELLS/uL
BASOPHIL [7]: 0%
EOSINOPHIL [7]: 0.33%
ERYTHROCYTE COUNT [7]: 5.79 x10E6/uL
HEMATOCRIT [7]: 36.83%
HEMOGLOBIN [7]: 13.8 G/DL
LEUKOCYTE COUNT [7]: 14.2 x10E3/uL
MEAN CORPUSCULAR HEMOGLOBIN [7]: 23.9 pg
MEAN CORPUSCULAR HEMOGLOBIN CONCENTRATION [7]: 37.5 G/DL
MONOCYTE [7]: 3%
NEUTROPHIL [7]: 7%
NUCLEATED RED BLOOD CELLS [7]: 0 /100WBC
PLATELET COUNT [7]: 1414 x10E3/uL
ALANINE AMINOTRANSFERASE [8]: 41.33 u/L
ALKALINE PHOSPHATASE [8]: 357 u/L
ASPARTATE AMINOTRANSFERASE [8]: 86.33 u/L
CARBON DIOXIDE [8]: 24.33 mmol/L
CREATINE PHOSPHOKINASE [8]: 353.67 u/L
CREATININE [8]: 0.22 mg/dL
GLUCOSE [8]: 190.67 mg/dL
LACTATE DEHYDROGENASE [8]: 202.33 u/L
PHOSPHORUS [8]: 14.33 mg/dL
POTASSIUM [8]: 6.7 MEQ/L
SODIUM [8]: 150 MEQ/L
TOTAL BILIRUBIN [8]: 0.2 mg/dL
TOTAL PROTEIN [8]: 5.87 G/DL
URIC ACID [8]: 2.3 mg/dL
